Data on 13 compounds can be found in patent US20190194209A1, “PYRAZOLE CARBOXAMIDE COMPOUNDS AND METHODS OF USE” (Genentech, Inc., priority 2014, published 2019).

What is called Ki is the dissociation constant of the complex between target and ligand, obtained from inhibition or displacement. For orientation: IC70 means the point of the concentration-response curve where the effect stands at 70%.

Test [1] concerns the target T1, full length human wildtype Btk (Homo sapiens, UniProt Q06187).
T1 construct: V5 (C); 6xHis (C); made in house; host or cells: Sf9 cells (baculovirus, pFastBac)
The test is described as follows: Biochemical Btk Kinase Assay (Example 901). The settings on record: read-out: BTK LC3K (Ki). The procedure:
Formula I compounds were tested by a standard biochemical Btk, Kinase Assay (Example 901). A generalized procedure for a standard biochemical Btk, Kinase Assay that can be used to test Formula I compounds is as follows. A master mix minus Btk enzyme is prepared containing 1× Cell Signaling kinase buffer (25 mM Tris-HCl, pH 7.5, 5 mM beta-glycerophosphate, 2 mM dithiothreitol, 0.1 mM Na3VO4, 10 mM MgCl2), 0.5 μM Promega PTK Biotinylated peptide substrate 2, and 0.01% BSA. A master mix plus Btk enzyme is prepared containing 1× Cell Signaling kinase buffer, 0.5 μM (micromolar) PTK Biotinylated peptide substrate 2, 0.01% BSA, and 100 ng/well (0.06 mU/well) Btk enzyme. Btk enzyme is prepared as follows: full length human wildtype Btk (accession number NM-000061) with a C-terminal V5 and 6×His tag was subcloned into pFastBac® vector (Invitrogen/Life Technologies) for making baculovirus carrying this epitope-tagged Btk. Generation of baculovirus is done based on Invitrogen's instructions detailed in its published protocol “Bac-to-Bac Baculovirus Expression Systems” (Invitrogen/Life Technologies, Cat. Nos. 10359-016 and 10608-016). Passage 3 virus is used to infect Sf9 cells to overexpress the recombinant Btk protein. The Btk protein is then purified to homogeneity using Ni-NTA column. The purity of the final protein preparation is greater than 95% based on the sensitive Sypro-Ruby staining. A solution of 200 μM ATP is prepared in water and adjusted to pH 7.4 with 1N NaOH. A quantity of 1.25 μL (microliter) of compounds in 5% DMSO is transferred to a 96-well 2 area Costar polystyrene plate. Compounds are tested singly and with an 11-point dose-responsive curve (starting concentration is 10 μM; 1:2 dilution). A quantity of 18.75 μL of master mix minus enzyme (as a negative control) and master mix plus enzyme is transferred to appropriate wells in 96-well 2 area costar polystyrene plate. 5 μL of 200 μM ATP is added to that mixture in the 96-well 2 area Costar polystyrene plate for final ATP concentration of 40 μM. The reaction is allowed to incubate for 1 hour at room temperature. The reaction is stopped with Perkin Elmer 1× detection buffer containing 30 mM EDTA, 20 nM SA-APC, and 1 nM PT66 Ab. The plate is read using time-resolved fluorescence with a Perkin Elmer Envision using excitation filter 330 nm, emission filter 665 nm, and 2nd emission filter 615 nm. IC50 values are subsequently calculated. Alternatively, the Lanthascreen assay can be used to evaluate Btk activity through quantification of its phosphorylated peptide product. The FRET (Fluorescence Resonance Energy Transfer) that occurs between the fluorescein on the peptide product and the terbium on the detection antibody decreases with the addition of inhibitors of Btk that reduce the phosphorylation of the peptide. In a final reaction volume of 25 μL (microliters), Btk (h) (0.1 ng/25 μl reaction) is incubated with 50 mM Hepes pH 7.5, 10 mM MgCl2, 2 mM MnCl2, 2 mM DTT, 0.2 mM NaVO4, 0.01% BSA, and 0.4 uM fluorescein poly-GAT. The reaction is initiated by the addition of ATP to 25 μM (micromolar) the Km of ATP. After incubation for 60 minutes at room temperature, the reaction is stopped by the addition of a final concentration of 2 nM Tb-PY20 detection antibody in 60 mM EDTA for 30 minutes at room temperature. Detection is determined on a Perkin Elmer Envision with 340 nm excitation and emission at 495 nm and 520 nm. Exemplary Btk inhibition […] values are in Table 1.

In test [2] the test system is CD69 production by B lymphocytes in human whole blood activated with goat F(ab')2 anti-human IgM. The test is described as follows: CD69 Whole Blood Assay (Example 907). It counts as cell-based. The note with it: Lymphocyte, read-out: CD69 Hu Blood FACS (IC70). The text has this: A CD69 Whole Blood Assay can be conducted on Formula I compounds to determine the ability of compounds to inhibit the production of CD69 by B lymphocytes in human whole blood activated by crosslinking surface IgM with goat F(ab′)2 anti-human IgM (Example 907). CD69 is a type II C-type lectin involved in lymphocyte migration and cytokine secretion. CD69 expression represents one of the earliest available indicators of leukocyte activation and its rapid induction occurs through transcriptional activation (Vazquez et al (2009) Jour. of Immunology Published Oct. 19, 2009, doi: 10.4049/jimmunol.0900839). Concentration-dependent inhibition of antigen receptor stimulation by selective Btk inhibitors induces cell surface expression of the lymphocyte activation marker CD69 (Honigberg et al (2010) Proc. Natl. Acad. Sci. 107(29):13075-13080). Thus, CD69 inhibition by selective Btk inhibitors may be correlated with therapeutic efficacy of certain B-cell disorders.
Human blood is obtained from healthy volunteers, with the following restrictions: 1 week drug-free, non-smokers. Blood (approximately 20 mls to test 8 compounds) is collected by venipuncture into Vacutainer® (Becton, Dickinson and Co.) tubes with sodium heparin.
Solutions of Formula I compounds at 10 mM in DMSO are diluted 1:10 in 100% DMSO, then are diluted by three-fold serial dilutions in 100% DMSO for a ten point dose-response curve. The compounds are further diluted 1:10 in PBS and then an aliquot of 5.5 μl of each compound is added in duplicate to a 2 ml 96-well plate; 5.5 μl of 10% DMSO in PBS is added as control and no-stimulus wells. Human whole blood—HWB (100 μl) is added to each well. After mixing the plates are incubated at 37° C., 5% CO2, 100% humidity for 30 minutes. Goat F(ab′)2 anti-human IgM (10 μl of a 500 μg/ml solution, 50 μg/ml final) is added to each well (except the no-stimulus wells) with mixing and the plates are incubated for an additional 20 hours. At the end of the 20 hour incubation, samples are incubated with fluorescent labeled antibodies for 30 minutes, at 37° C., 5% CO2, 100% humidity. Include induced control, unstained and single stains for compensation adjustments and initial voltage settings. Samples are then lysed with PharM Lyse™ (BD Biosciences Pharmingen) according to the manufacturer's instructions. Samples are then transferred to a 96 well plate suitable to be run on the BD Biosciences HTS 96 well system on the LSRII machine. Data acquired and Mean Fluorescence Intensity values were obtained using BD Biosciences DIVA Software. Results are initially analyzed by FACS analysis software (Flow Jo).

Setting [3] is: human whole blood, anti-IgM stimulated, 20 hour incubation, CD20 positive cells, FACS.

Read-outs that look alike come from different tables or passages of the source.

T1 sequence (Q06187 whole entry): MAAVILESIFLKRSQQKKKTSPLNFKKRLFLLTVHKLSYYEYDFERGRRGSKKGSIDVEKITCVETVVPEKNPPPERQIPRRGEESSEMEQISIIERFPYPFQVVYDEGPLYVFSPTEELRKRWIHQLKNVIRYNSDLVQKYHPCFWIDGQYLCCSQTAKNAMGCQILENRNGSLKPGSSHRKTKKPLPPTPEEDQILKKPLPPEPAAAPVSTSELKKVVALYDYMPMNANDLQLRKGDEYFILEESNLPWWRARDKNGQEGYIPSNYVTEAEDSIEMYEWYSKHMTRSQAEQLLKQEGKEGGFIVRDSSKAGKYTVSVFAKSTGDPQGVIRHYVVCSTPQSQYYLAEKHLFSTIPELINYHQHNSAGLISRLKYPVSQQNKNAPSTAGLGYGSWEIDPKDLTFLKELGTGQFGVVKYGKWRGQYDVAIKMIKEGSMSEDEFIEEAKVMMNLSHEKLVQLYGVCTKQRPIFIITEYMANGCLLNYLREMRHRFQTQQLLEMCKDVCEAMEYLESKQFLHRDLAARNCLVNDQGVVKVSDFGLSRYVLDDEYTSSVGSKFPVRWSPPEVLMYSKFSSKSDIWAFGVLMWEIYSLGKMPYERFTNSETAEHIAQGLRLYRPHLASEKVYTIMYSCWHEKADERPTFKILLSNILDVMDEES

For `CC1(C)Cc2cc3n(c2C1)CCN(c1nccc(-n2cc(C(N)=O)c(Nc4ccccn4)n2)c1CO)C3=O` [Example 103, 1-[2-(7,7-dimethyl-4-oxo-1,2,6,8-tetrahydrocyclopenta[3,4]pyrrole[3,5-b]pyrazin-3-yl)-3-(hydroxymethyl)-4-pyridyl]-3-(2-pyridylamino)pyrazole-4-carboxamide], the inhibition constant Ki in test [1] stood at 0.565 nM. In addition, in test [2] (setting [3]), the IC70 came out at 0.127 µM. `CCC(=O)Nc1nn(-c2ccnc(N3CCn4c(cc5c4CC(C)(C)C5)C3=O)c2CO)cc1C(N)=O` [Example 123, 1-[2-(7,7-dimethyl-4-oxo-1,2,6,8-tetrahydrocyclopenta[3,4]pyrrolo[3,5-b]pyrazin-3-yl)-3-(hydroxymethyl)-4-pyridyl]-3-(propanoylamino)pyrazole-4-carboxamide]: in test [1], the Ki was 32.1 nM. Besides, in test [2] (setting [3]), the concentration for an effect of 70% (IC70) came out at 0.685 µM.

With `CC1(C)Cc2cc3n(c2C1)CCN(c1cccc(-n2cc(C(N)=O)c(Nc4ccccn4)n2)c1CO)C3=O` [Example 102, 1-[3-(7,7-dimethyl-4-oxo-1,2,6,8-tetrahydrocyclopenta[3,4]pyrrolo[3,5-b]pyrazin-3-yl)-2-(hydroxymethyl)phenyl]-3-(2-pyridylamino)pyrazole-4-carboxamide], the inhibitory constant (Ki) in test [1] came out at 1.01 nM. In addition, in test [2] (setting [3]), the IC70 was found to be 0.166 µM. With `CC(C)(C)c1cc(F)c2c(=O)n(-c3nccc(-n4cc(C(N)=O)c(Nc5ccc(Cl)cn5)n4)c3CO)ncc2c1` [Example 116, 1-[2-(6-tert-butyl-8-fluoro-1-oxo-phthalazin-2-yl)-3-(hydroxymethyl)-4-pyridyl]-3-[(5-chloro-2-pyridyl)amino]pyrazole-4-carboxamide], the Ki in test [1] is 0.403 nM. In addition, the IC70 in test [2] (setting [3]) is 0.311 µM. With `CC(C)(C)c1cc(F)c2c(=O)n(-c3nccc(-n4cc(C(N)=O)c(Nc5ccc(N6CCNCC6)cn5)n4)c3CO)ncc2c1` [Example 118, 1-[2-(6-tert-butyl-8-fluoro-1-oxo-phthalazin-2-yl)-3-(hydroxymethyl)-4-pyridyl]-3-[(5-piperazin-1-yl-2-pyridyl)amino]pyrazole-4-carboxamide], the Ki in test [1] was 0.248 nM. The concentration for an effect of 70% (IC70) in test [2] (setting [3]) turned out to be 0.574 µM. In the case of `CC1(C)Cc2cc3n(c2C1)CCN(c1nccc(-n2cc(C(N)=O)c(N)n2)c1CO)C3=O` [Example 117, 3-amino-1-[2-(7,7-dimethyl-4-oxo-1,2,6,8-tetrahydrocyclopenta[3,4]pyrrolo[3,5-b]pyrazin-3-yl)-3-(hydroxymethyl)-4-pyridyl]pyrazole-4-carboxamide], the Ki in test [1] came out at 2.45 nM. For the same compound, in test [2] (Homo sapiens, 20 h), the IC70 was 0.494 µM.

Turning to `Cn1cc(Nc2nn(-c3ccnc(N4CCn5c(cc6c5CC(C)(C)C6)C4=O)c3CO)cc2C(N)=O)nn1` [Example 119, 1-[2-(7,7-dimethyl-4-oxo-1,2,6,8-tetrahydrocyclopenta[3,4]pyrrolo[3,5-b]-pyrazin-3-yl)-3-(hydroxymethyl)-4-pyridyl]-3-[(1-methyltriazol-4-yl)amino]pyrazole-4-carboxamide], the inhibitory constant (Ki) in test [1] stood at 0.317 nM. Besides, in test [2] (setting [3]), the IC70 amounted to 0.0472 µM.

Turning to `CC(C)(C)c1cc(F)c2c(=O)n(-c3nccc(-n4cc(C(N)=O)c(Nc5ccccn5)n4)c3CO)ncc2c1` [Example 106, 1-[2-(6-tert-butyl-8-fluoro-1-oxo-phthalazin-2-yl)-3-(hydroxymethyl)-4-pyridyl]-3-(2-pyridylamino)pyrazole-4-carboxamide], the Ki in test [1] worked out at 0.34 nM. Further, in test [2] (Homo sapiens, 20 h), the IC70 amounted to 0.132 µM. For the compound `C[C@H]1CN(C2COC2)CCN1c1ccc(Nc2nn(-c3cc(F)cc(N4CCn5c(cc6c5CC(C)(C)C6)C4=O)c3CO)cc2C(N)=O)nc1` [Example 145, 1-[3-(7,7-dimethyl-4-oxo-1,2,6,8-tetrahydrocyclopenta[3,4]pyrrolo[3,5-b]pyrazin-3-yl)-5-fluoro-2-(hydroxymethyl)phenyl]-3-[[5-[(2S)-2-methyl-4-(oxetan-3-yl)piperazin-1-yl]-2-pyridyl]amino]pyrazole-4-carboxamide], the Ki in test [1] was determined as 0.103 nM. Moreover, in test [2] (setting [3]), the 70% effect concentration (IC70) was 0.0304 µM. On to `CC1(C)Cc2cc3n(c2C1)CCN(c1cccc(-n2cc(C(N)=O)c(Nc4ccncn4)n2)c1CO)C3=O` [Example 104, 1-[3-(7,7-dimethyl-4-oxo-1,2,6,8-tetrahydrocyclopenta[3,4]pyrrole[3,5-b]pyrazin-3-yl)-2-(hydroxymethyl)phenyl]-3-(pyrimidin-4-ylamino)pyrazole-4-carboxamide], for which the Ki in test [1] amounted to 0.249 nM. For the same compound, the concentration for an effect of 70% (IC70) in test [2] (setting [3]) was found to be 0.0362 µM. Consider `CC1(C)Cc2cc3n(c2C1)CCN(c1nccc(-n2cc(C(N)=O)c(Nc4ccccc4)n2)c1CO)C3=O` [Example 101, 3-anilino-1-[2-(7,7-dimethyl-4-oxo-1,2,6,8-tetrahydrocyclopenta[3,4]pyrrolo[3,5-b]pyrazin-3-yl)-3-(hydroxymethyl)-4-pyridyl]pyrazole-4-carboxamide], for which the Ki in test [1] turned out to be 2.4 nM. The IC70 in test [2] (setting [3]) stood at 0.0369 µM. With `CC(C)(C)c1cc(F)c2c(=O)n(-c3nccc(-n4cc(C(N)=O)c(-c5cccnc5)n4)c3CO)ncc2c1` [Example 144, 1-[2-(6-tert-butyl-8-fluoro-1-oxo-phthalazin-2-yl)-3-(hydroxymethyl)-4-pyridyl]-3-(3-pyridyl)pyrazole-4-carboxamide], the inhibition constant (Ki) in test [1] was found to be 124 nM. Take `CC(C)(C)c1cc(F)c2c(=O)n(-c3nccc(-n4cc(C(N)=O)c(-c5cncnc5)n4)c3CO)ncc2c1` [Example 142, 1-[2-(6-tert-butyl-8-fluoro-1-oxo-phthalazin-2-yl)-3-(hydroxymethyl)-4-pyridyl]-3-pyrimidin-5-yl-pyrazole-4-carboxamide]: the Ki in test [1] came to 135 nM.
